Results: ChEMBL document CHEMBL4145521, “Regioselective synthesis of 3,4-diaryl-5-unsubstituted isoxazoles, analogues of natural cytostatic combretastatin A4” (Eur J Med Chem, 2018)

Columns and labels:
Format in all cases: functional
MOLT-4 [1] = assay: Cytotoxicity against human MOLT4 cells assessed as cell growth at 0.01 uM incubated for 48 hrs by sulforhodamine B assay relative to control; conditions: MOLT-4, 48 h, read-out: Activity
COLO 205 = assay: Cytotoxicity against human COLO205 cells assessed as cell growth at 0.01 uM incubated for 48 hrs by sulforhodamine B assay relative to control; conditions: COLO 205, 48 h, read-out: Activity
SW-620 [2] = assay: Cytotoxicity against human SW620 cells assessed as cell growth at 0.01 uM incubated for 48 hrs by sulforhodamine B assay relative to control; conditions: SW-620, 48 h, read-out: Activity
SF-539 = assay: Cytotoxicity against human SF539 cells assessed as cell growth at 0.01 uM incubated for 48 hrs by sulforhodamine B assay relative to control; conditions: SF-539, 48 h, read-out: Activity
OVCAR-4 [3] = assay: Cytotoxicity against human OVCAR4 cells assessed as cell growth at 0.01 uM incubated for 48 hrs by sulforhodamine B assay relative to control; conditions: OVCAR-4, 48 h, read-out: Activity
UO-31 = assay: Cytotoxicity against human UO31 cells assessed as cell growth at 0.01 uM incubated for 48 hrs by sulforhodamine B assay relative to control; conditions: UO-31, 48 h, read-out: Activity
Hs-578T = assay: Cytotoxicity against human Hs 578T cells assessed as cell growth at 0.01 uM incubated for 48 hrs by sulforhodamine B assay relative to control; conditions: read-out: Activity
MOLT-4 [4] = assay: Cytotoxicity against human MOLT4 cells assessed as cell growth at 0.1 uM incubated for 48 hrs by sulforhodamine B assay relative to control; conditions: MOLT-4, 48 h, read-out: Activity
NCI-H522 = assay: Cytotoxicity against human NCI-H522 cells assessed as cell growth at 0.1 uM incubated for 48 hrs by sulforhodamine B assay relative to control; conditions: NCI-H522, 48 h, read-out: Activity
SNB-19 = assay: Cytotoxicity against human SNB19 cells assessed as cell growth at 0.1 uM incubated for 48 hrs by sulforhodamine B assay relative to control; conditions: SNB-19, 48 h, read-out: Activity
SNB-75 = assay: Cytotoxicity against human SNB75 cells assessed as cell growth at 0.1 uM incubated for 48 hrs by sulforhodamine B assay relative to control; conditions: SNB-75, 48 h, read-out: Activity
SN12C [5] = assay: Cytotoxicity against human SN12C cells assessed as cell growth at 0.1 uM incubated for 48 hrs by sulforhodamine B assay relative to control; conditions: read-out: Activity
SF-268 = assay: Cytotoxicity against human SF268 cells assessed as cell growth at 1 uM incubated for 48 hrs by sulforhodamine B assay relative to control; conditions: SF-268, 48 h, read-out: Activity
UACC-62 = assay: Cytotoxicity against human UACC62 cells assessed as cell growth at 1 uM incubated for 48 hrs by sulforhodamine B assay relative to control; conditions: UACC-62, 48 h, read-out: Activity
OVCAR-3 = assay: Cytotoxicity against human OVCAR3 cells assessed as cell growth at 1 uM incubated for 48 hrs by sulforhodamine B assay relative to control; conditions: OVCAR-3, 48 h, read-out: Activity
OVCAR-5 = assay: Cytotoxicity against human OVCAR5 cells assessed as cell growth at 1 uM incubated for 48 hrs by sulforhodamine B assay relative to control; conditions: OVCAR-5, 48 h, read-out: Activity
LOX IMVI [6] = assay: Cytotoxicity against human LOXIMVI cells assessed as cell growth at 10 uM incubated for 48 hrs by sulforhodamine B assay relative to control; conditions: read-out: Activity
OVCAR-8 [7] = assay: Cytotoxicity against human OVCAR8 cells assessed as cell growth at 10 uM incubated for 48 hrs by sulforhodamine B assay relative to control; conditions: OVCAR-8, 48 h, read-out: Activity
ACHN = assay: Cytotoxicity against human ACHN cells assessed as cell growth at 10 uM incubated for 48 hrs by sulforhodamine B assay relative to control; conditions: read-out: Activity
T47D = assay: Cytotoxicity against human T47D cells assessed as cell growth at 10 uM incubated for 48 hrs by sulforhodamine B assay relative to control; conditions: read-out: Activity
NCI-H23 = assay: Cytotoxicity against human NCI-H23 cells assessed as cell growth at 100 uM incubated for 48 hrs by sulforhodamine B assay relative to control; conditions: NCI-H23, 48 h, read-out: Activity
KM12 = assay: Cytotoxicity against human KM12 cells assessed as cell growth at 100 uM incubated for 48 hrs by sulforhodamine B assay relative to control; conditions: KM12, 48 h, read-out: Activity
OVCAR-8 [8] = assay: Cytotoxicity against human OVCAR8 cells assessed as cell growth at 100 uM incubated for 48 hrs by sulforhodamine B assay relative to control; conditions: OVCAR-8, 48 h, read-out: Activity
SN12C [9] = assay: Cytotoxicity against human SN12C cells assessed as cell growth at 100 uM incubated for 48 hrs by sulforhodamine B assay relative to control; conditions: read-out: Activity
RPMI-8226 = assay: Cytotoxicity against human RPMI8226 cells incubated for 48 hrs by sulforhodamine B assay; conditions: RPMI-8226, 48 h
SR = assay: Cytotoxicity against human SR cells incubated for 48 hrs by sulforhodamine B assay
SW-620 [10] = assay: Cytotoxicity against human SW620 cells incubated for 48 hrs by sulforhodamine B assay; conditions: SW-620, 48 h
LOX IMVI [11] = assay: Cytotoxicity against human LOXIMVI cells incubated for 48 hrs by sulforhodamine B assay
M14 = assay: Cytotoxicity against human M14 cells incubated for 48 hrs by sulforhodamine B assay; conditions: M14, 48 h
OVCAR-4 [12] = assay: Cytotoxicity against human OVCAR4 cells incubated for 48 hrs by sulforhodamine B assay; conditions: OVCAR-4, 48 h
SN12C [13] = assay: Cytotoxicity against human SN12C cells incubated for 48 hrs by sulforhodamine B assay
[14] = read-out: LC50 (the source's name)
[15] = read-out: pLC50 (the source's name) (converted)

Structure (SMILES): COc1ccc(-c2nocc2-c2cc(OC)c(OC)c(OC)c2)cc1
- growth at 0.01 µM (MOLT-4 [1]): 99%
- growth at 0.01 µM (COLO 205): 91%
- growth at 0.01 µM (SW-620 [2]): 94%
- growth at 0.01 µM (SF-539): 86%
- growth at 0.01 µM (OVCAR-4 [3]): 86%
- growth at 0.01 µM (UO-31): 90%
- growth at 0.01 µM (Hs-578T): 92%
- growth at 0.1 µM (MOLT-4 [4]): 85%
- growth at 0.1 µM (NCI-H522): -12%
- growth at 0.1 µM (SNB-19): 69%
- growth at 0.1 µM (SNB-75): 47%
- growth at 0.1 µM (SN12C [5]): 88%
- growth at 1 µM (SF-268): 45%
- growth at 1 µM (UACC-62): 27%
- growth at 1 µM (OVCAR-3): 1%
- growth at 1 µM (OVCAR-5): 53%
- growth at 10 µM (LOX IMVI [6]): 21%
- growth at 10 µM (OVCAR-8 [7]): 25%
- growth at 10 µM (ACHN): 29%
- growth at 10 µM (T47D): 52%
- growth at 100 µM (NCI-H23): -3%
- growth at 100 µM (KM12): -45%
- growth at 100 µM (OVCAR-8 [8]): 4%
- growth at 100 µM (SN12C [9]): -1%
- GI50 (RPMI-8226; read-out: GI50): 0.44 µM
- CC50 (RPMI-8226; [14]): > 100 µM
- TGI (RPMI-8226; read-out: TGI): 30.5 µM
- GI50 (RPMI-8226; read-out: pGI50 (converted)): 0.437 µM
- CC50 (RPMI-8226; [15]): > 100 µM
- TGI (RPMI-8226; read-out: pTGI (converted)): 30.2 µM
- GI50 (SR; read-out: GI50): 0.0717 µM
- CC50 (SR; [14]): > 100 µM
- TGI (SR; read-out: TGI): 58.3 µM
- GI50 (SR; read-out: pGI50 (converted)): 0.0724 µM
- CC50 (SR; [15]): > 100 µM
- TGI (SR; read-out: pTGI (converted)): 58.9 µM
- GI50 (SW-620 [10]; read-out: GI50): 0.0509 µM
- CC50 (SW-620 [10]; [14]): > 100 µM
- TGI (SW-620 [10]; read-out: TGI): > 100 µM
- GI50 (SW-620 [10]; read-out: pGI50 (converted)): 0.0513 µM
- CC50 (SW-620 [10]; [15]): > 100 µM
- TGI (SW-620 [10]; read-out: pTGI): > 100 µM
- GI50 (LOX IMVI [11]; read-out: GI50): 0.254 µM
- LC50 (concentration killing 50% of cells) (LOX IMVI [11]; read-out: LC50): > 100 µM
- TGI (LOX IMVI [11]; read-out: TGI): 55.5 µM
- GI50 (LOX IMVI [11]; read-out: pGI50 (converted)): 0.257 µM
- LC50 (concentration killing 50% of cells) (LOX IMVI [11]; read-out: pLC50 (converted)): > 100 µM
- TGI (LOX IMVI [11]; read-out: pTGI (converted)): 55 µM
- GI50 (M14; read-out: GI50): 0.0668 µM
- CC50 (M14; [14]): > 100 µM
- TGI (M14; read-out: TGI): 53.9 µM
- GI50 (M14; read-out: pGI50 (converted)): 0.0661 µM
- CC50 (M14; [15]): > 100 µM
- TGI (M14; read-out: pTGI (converted)): 53.7 µM
- GI50 (OVCAR-4 [12]; read-out: GI50): 0.926 µM
- LC50 (OVCAR-4 [12]; read-out: LC50): > 100 µM
- TGI (OVCAR-4 [12]; read-out: TGI): > 100 µM
- GI50 (OVCAR-4 [12]; read-out: pGI50 (converted)): 0.933 µM
- LC50 (OVCAR-4 [12]; read-out: pLC50 (converted)): > 100 µM
- TGI (OVCAR-4 [12]; read-out: pTGI): > 100 µM
- GI50 (SN12C [13]; read-out: GI50): 0.825 µM
- LC50 (SN12C [13]; read-out: LC50): > 100 µM
- TGI (SN12C [13]; read-out: TGI): 92.6 µM
- GI50 (SN12C [13]; read-out: pGI50 (converted)): 0.832 µM
- LC50 (SN12C [13]; read-out: pLC50 (converted)): > 100 µM
- TGI (SN12C [13]; read-out: pTGI (converted)): 93.3 µM
